According to patent US20140288110A1, “PPAR MODULATORS” (EVOLVA SA, priority 2006, published 2014):

Experiments:
3T3-L1 / MEFs = test: Adipocyte differentiation assay, induction, Oil Red O staining; type: cell-based, mouse; set-up: key to Adip.: 0: representing similar results to DPD; −1: representing even less adipocyte differentiation; +1: representing more adipocyte differentiation (both relative to DPD); conditions: for Adip.: adipocyte differentiation relative to DPD (SN1), Oil Red O staining; for induction of adipocyte differentiation (red staining), in words: induction assay, Oil Red O
Experimental: This example describes an assay for determining adipocyte differention. Compounds are tested to see whether they induce adipocyte differentiation and also to see whether they inhibit adipocyte differention.
MEFs were grown in AmnioMax basal medium (Gibco) supplemented with 7.5% Amniomax supplement C-100 (Gibco), 7.5% Fetal Bovine Serum (FBS), 2 mM Glutamine, 62.5 μg/ml penicillin and 100 μg/ml Streptomycin (growth medium). At confluence, MEFs were induced to differentiation in growth medium with the addition of 1 microM dexamethasone (Sigma) 0.5 mM isobutylmethylxanthine (Sigma), 5 microg/ml insulin (Sigma) and 10 microM test compound dissolved in DMSO or DMSO alone. Medium was subsequently renewed every 48 hrs with growth media supplemented with 5 microg/ml Insulin and ligand or DMSO.
Briefly, to test compounds as inducers of adipocyte differentiation, 3T3-L1 are grown to confluence in DMEM with 10% Calf serum (CS), typically in 24 well dishes. At 2 days post confluence (day 0), cells are induced to differentiate with DMEM supplemented with 10% fetal bovine serum (FBS), 1 μM dexamethasone and the test compound ([…], 1 and 10 microM). BRL49653 (1.0 μM dissolved in 100% Me2SO) is used as a positive control. After 48 h, the cells are re-fed with DMEM containing 10% FBS supplemented with the test compound or the positive control. From day 4, cells are grown in DMEM with 10% FBS and are changed every second day until day 8. At day 8, cells are stained with Oil Red O as described below.
Cells cultured as described above are used for Oil Red staining. Dishes are washed in PBS and cells were fixed in 3.7% paraformaldehyde for 1 h and stained with oil red O as described in (Hansen et al 1999). Oil red O solution stock solution is prepared by dissolving 0.5 g of Oil Red O (Sigma) in 100 ml of isopropanol. Oil re O working solution is prepared by diluting a stock solution with water (6:4) followed by filtration.
Table II summarizes results obtained with different analogs of DPD (SN1), “0” representing similar results to DPD, “−1” representing even less adipocyte differentiation, “+1” representing more adipocyte differentiation (both relative to DPD) and “−” meaning not assayed.

[1] = tested on: PPARgamma ligand-binding domain (Gal4-PPARgammaLBD); test: PPARgamma transactivation assay (Gal4-PPARgammaLBD, UASx4-TK luc reporter); type: cell-based; conditions: for PPAR: PPARgamma activating activity compared with 10 microM DPD (SN1)
Text: This is an example of a transactivation assay for determining PPAR gamma modulating activity.
The UASx4-TK-luc reporter construct (where UAS refers to “upstream activator sequence”) contains four Gal4-responsive elements. The plasmid Gal4-PPARgammaLBD encodes a Gal4-DBD-PPARgamma-LBD fusion protein (i.e. the DNA-binding domain, DBD, of Gal4 fused to the ligand-binding domain, LBD, of PPARgamma) capable of transactivating the UASx4-TK-luc reporter plasmid by binding to the UAS. The CMV-beta-galactosidase plasmid (where CMV is cytomegalovirus) is used for normalization of experimental values.
The cells were replated, typically in 24 well plates, so that at the time of transfection the cells are 50-70% confluent.
Briefly, per well in a 24 well plate, UASx4TKluc (0.2 microg) Gal4-PPARgammaLBD (or pM-hPPARgamma-LBD; 0.1 microg) and CMV-beta-galactosidase (0.05 microg) in 30 μL DMEM (free of serum and antibiotics) is mixed with 30 microL DMEM (free of serum and antibiotics) containing 1 microL metafectenein. The mixture is incubated at room temperature for 20 min to allow formation of nucleic acid-lipid complexes and then approximately 60 microL is added to each well containing the 50-60% confluent cells. […] Cells were harvested after 12-24 hours and luciferase and beta-galactosidase activities were measured according to standard protocols.
“−” means that testing was not performed.

mPPARalphaLBD = biological target: T1, mPPARalphaLBD (Mus musculus, UniProt P23204); test: PPARalpha transactivation assay (mPPARalphaLBD); type: cell-based
T1 construct: expressed in transfected cells
T1 sequence (P23204 239-466 limits assumed): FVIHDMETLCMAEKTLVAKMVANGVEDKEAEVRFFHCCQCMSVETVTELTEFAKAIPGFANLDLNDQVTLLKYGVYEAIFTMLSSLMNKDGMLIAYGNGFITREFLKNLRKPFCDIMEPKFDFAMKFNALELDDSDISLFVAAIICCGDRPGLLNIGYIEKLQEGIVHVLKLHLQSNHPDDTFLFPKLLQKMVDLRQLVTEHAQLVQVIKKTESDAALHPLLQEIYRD
Experimental: This example describes a transactivation assay for determining PPARalpha modulating activity.
DPD and other ligands are tested for their ability to transactivate PPAR alpha essentially as described in Example 1.

| SMILES | Adip. (3T3-L1 / MEFs) | also measured |
| --- | --- | --- |
| O=C(O)CC/C=C\C[C@@H]1COC(c2ccccc2F)O[C@@H]1c1ccccc1O (mixture of isomers) [compound 4] | 0 |  |
| O=C(O)CC/C=C\C[C@@H]1COC(c2cccc3c2OCO3)O[C@@H]1c1ccccc1O (mixture of isomers) [compound 5] | 0 | PPAR [1]: P− |
| COc1ccc(Oc2ccccc2C2OC[C@@H](C/C=C\CCC(=O)O)[C@@H](c3ccccc3O)O2)cc1 (mixture of isomers) [compound 7] | 0 | PPAR gamma modulating activity, in words [1]: higher potency; induction of adipocyte differentiation (red staining), in words (3T3-L1 / MEFs): low or no adipocyte differentiation |
| O=C(O)CC/C=C\C[C@@H]1COC(c2ccccc2-c2ccccc2)O[C@@H]1c1ccccc1O (mixture of isomers) [compound 10] | 0 | PPAR gamma modulating activity, in words [1]: PPAR gamma antagonist; PPAR [1]: Antagonist |
| COc1cccc([C@H]2OC[C@@H](C/C=C\CCC(=O)O)[C@@H](c3ccccc3O)O2)c1OC (mixture of isomers) [compound 19] | 0 |  |
| CC(C)(Sc1ccc(CCN(CCCCC2CCCCC2)C(=O)NC2CCCCC2)cc1)C(=O)O [GW7647, reference compound] |  | increase of PPAR alpha transactivation (mPPARalphaLBD): over 2 fold |
| O=C(O)CC/C=C\C[C@@H]1CO[C@H](c2ccccc2Cl)O[C@@H]1c1ccccc1O [compound 1] | 0 |  |
| O=C(O)CC/C=C\C[C@@H]1COC(c2cccc(Cl)c2Cl)O[C@@H]1c1ccccc1O (stereo partly drawn) [compound 2] | 0 |  |
| O=C(O)CC/C=C\C[C@@H]1COC2(CCCCC2)O[C@@H]1c1ccccc1O [compound 6] | 0 |  |
| O=C(O)CC/C=C\C[C@@H]1COC2(CCNCC2)O[C@@H]1c1ccccc1O [compound 8] | −1 | PPAR [1]: Boc derivative Inactive |
| O=C(O)CC/C=C\C[C@@H]1COC(c2cccc3ccccc23)O[C@@H]1c1ccccc1O (stereo partly drawn) [compound 9] | 0 |  |
| CCCCCC1OC[C@@H](C/C=C\CCC(=O)O)[C@@H](c2ccccc2O)O1 (stereo partly drawn) [compound 11] | +1 |  |
| C/C=C/CC1OC[C@@H](C/C=C\CCC(=O)O)[C@@H](c2ccccc2O)O1 (stereo partly drawn) [compound 12] | −1 |  |
| O=C(O)CC/C=C\C[C@@H]1COC(c2coc3ccc(Cl)cc3c2=O)O[C@@H]1c1ccccc1O (stereo partly drawn) [compound 13] | −1 | PPAR gamma modulating activity, in words [1]: higher potency; induction of adipocyte differentiation (red staining), in words (3T3-L1 / MEFs): low or no adipocyte differentiation |
| COc1ccccc1[C@H]1OC[C@@H](C/C=C\CCC(=O)O)[C@@H](c2ccccc2O)O1 [compound 18] | −1 |  |
| CC(C)[C@H]1OC[C@@H](C/C=C\CCC(=O)O)[C@@H](c2ccccc2O)O1 [compound 20] | 0 |  |
| O=C(O)CC/C=C\C[C@@H]1CO[C@H](C2CCCCC2)O[C@@H]1c1ccccc1O [compound 21] | 0 |  |
| O=C(O)CCC/C=C\C[C@@H]1CO[C@H](c2ccccc2Cl)O[C@@H]1c1ccccc1O [compound 23] | +1 |  |
| O=C(O)CC/C=C\C[C@@H]1COC(c2ccccc2Cl)O[C@@H]1c1ccccc1O (stereo partly drawn) [compound 27] |  | PPAR [1]: Inactive |
| COc1ccccc1[C@H]1O[C@@H](c2c(Cl)cccc2Cl)OC[C@H]1C/C=C\CCC(=O)O [compound 28] |  | PPAR [1]: Inactive |
| O=C(O)CCCCCCC[C@@H]1CO[C@H](c2ccccc2Cl)O[C@@H]1c1ccccc1O [compound 31] | 0 |  |
| CC1(C)OC[C@@H](C/C=C\CCCCC(=O)O)[C@@H](c2ccccc2O)O1 [compound 36] |  | PPAR [1]: Inactive |
| COc1ccccc1[C@H]1OC(C)(C)OC[C@H]1C/C=C\CCCCC(=O)O [compound 37] | 0 | PPAR [1]: Inactive |
| CN(CCOc1ccc(CC2SC(=O)NC2=O)cc1)c1ccccn1 (stereo not drawn) [rosiglitazone, reference compound] |  | PPAR transactivation, fold higher than with DMSO alone ([1]; Gal4-PPARgammaLBD, DPD at 10 microM): over 40 fold |
